Measurements from BindingDB's records for doi:10.1021/jm8005433 (A* Star, 2008).

What follows are molecules tested against Bcl-2-like protein 1 (Homo sapiens, UniProt Q07817) (assay: Fluorescence Polarization Assay). Conditions: pH 8; 22 °C.
Description: In the fluorescence polarization assay, the Bcl-XL protein is incubated with a fluorescein-tagged Bak-BH3 peptide. The Bcl-XL:Bak-BH3 peptide complex is then titrated with the test compounds, and the displacement of the Bak-BH3 peptide is measured as a function of decreasing polarized fluorescence. The fluorescence polarization values were determined using a Tecan GeniosPro plate reader using the excitation/emission wavelengths 485/535 nm. The binding affinities are reported as the inhibitory concentration of the titrant required to displace 50% of the Bak-BH3 peptide (IC50).

Bcl-2-like protein 1, sequence (Q07817 whole entry): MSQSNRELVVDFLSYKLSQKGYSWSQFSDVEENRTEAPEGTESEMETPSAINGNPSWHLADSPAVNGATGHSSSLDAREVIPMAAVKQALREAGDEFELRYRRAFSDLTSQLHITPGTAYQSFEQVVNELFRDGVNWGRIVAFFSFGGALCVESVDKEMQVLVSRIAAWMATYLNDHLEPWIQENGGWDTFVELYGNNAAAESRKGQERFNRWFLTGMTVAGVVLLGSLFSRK

SMILES | IC50
[O-][n+]1cc2c3c(ccc2c2ccccc21)OCO3 [8-oxido-12,14-dioxa-8-azatetracyclo[8.7.0.0^{2,7}.0^{11,15}]heptadeca-1(10),2(7),3,5,8,11(15),16-heptaen-8-ium] | > 100 µM
COc1ccc2c(c[n+]([O-])c3ccccc23)c1OC [7,8-dimethoxy-5-oxidophenanthridin-5-ium] | > 100 µM
C[n+]1cc2c3c(ccc2c2ccccc21)OCO3 [8-methyl-12,14-dioxa-8-azatetracyclo[8.7.0.0^{2,7}.0^{11,15}]heptadeca-1(10),2(7),3,5,8,11(15),16-heptaen-8-ium iodide] | 12 µM
COc1ccc2c(c[n+](C)c3ccccc23)c1OC [7,8-dimethoxy-5-methylphenanthridin-5-ium iodide] | > 100 µM
COc1ccc2c(c[n+](C)c3c4cc5c(cc4ccc23)OCO5)c1OC | 100 µM
C[n+]1cc2c3c(ccc2c2ccc4cc5c(cc4c21)OCO5)OCO3 | 19 µM
C[n+]1cc2c3c(ccc2c2ccccc21)OC(C)(C)O3 [8,13,13-trimethyl-12,14-dioxa-8-azatetracyclo[8.7.0.0^{2,7}.0^{11,15}]heptadeca-1(10),2(7),3,5,8,11(15),16-heptaen-8-ium iodide] | > 100 µM

The remaining lines, values ahead:

IC50 | SMILES
11 µM | C[n+]1cc2c3c(ccc2c2cc(CO)ccc21)OCO3 [4-(hydroxymethyl)-8-methyl-12,14-dioxa-8-azatetracyclo[8.7.0.0^{2,7}.0^{11,15}]heptadeca-1(10),2(7),3,5,8,11(15),16-heptaen-8-ium chloride]
> 100 µM | COc1ccc2c(c[n+](C)c3ccc(CO)cc23)c1OC [2-(hydroxymethyl)-7,8-dimethoxy-5-methylphenanthridin-5-ium chloride]
> 100 µM | CC1(C)Oc2ccc3c(c[n+]([O-])c4ccccc34)c2O1 [13,13-dimethyl-8-oxido-12,14-dioxa-8-azatetracyclo[8.7.0.0^{2,7}.0^{11,15}]heptadeca-1(10),2(7),3,5,8,11(15),16-heptaen-8-ium]
20 µM | Cn1cc2c(=O)c(O)ccc-2c2cc(CO)ccc21 [7,8-dihydroxy-2-(hydroxymethyl)-5-methylphenanthridin-5-ium chloride]
3 µM | C[n+]1cc2c3c(ccc2c2cc(CCO)ccc21)OCO3 [4-(2-hydroxyethyl)-8-methyl-12,14-dioxa-8-azatetracyclo[8.7.0.0^{2,7}.0^{11,15}]heptadeca-1(10),2(7),3,5,8,11(15),16-heptaen-8-ium chloride]
18 µM | Cn1cc2c(=O)c(O)ccc-2c2ccccc21 [7,8-dihydroxy-5-methylphenanthridin-5-ium chloride]
11 µM | COCc1ccc2c(c1)c1ccc3c(c1c[n+]2C)OCO3 [4-(methoxymethyl)-8-methyl-12,14-dioxa-8-azatetracyclo[8.7.0.0^{2,7}.0^{11,15}]heptadeca-1(10),2(7),3,5,8,11(15),16-heptaen-8-ium chloride]
22 µM | Cn1cc2c(=O)c(O)ccc-2c2cc(CCO)ccc21 [7,8-dihydroxy-2-(2-hydroxyethyl)-5-methylphenanthridin-5-ium chloride]
6 µM | COCCc1ccc2c(c1)c1ccc3c(c1c[n+]2C)OCO3 [4-(2-methoxyethyl)-8-methyl-12,14-dioxa-8-azatetracyclo[8.7.0.0^{2,7}.0^{11,15}]heptadeca-1(10),2(7),3,5,8,11(15),16-heptaen-8-ium chloride]
